From US20080167532A1, “ASSESSING CANCER TREATMENT RESPONSIVENESS” (Mayo Foundation for Medical Education and Research, priority 2006, published 2008)

How the values were obtained:
PPARγ = target: T1, PPARγ (Homo sapiens, UniProt P37231); assay: PPAR isoform luciferase reporter in transfected RIE cells; format: cell-based; set-up: expressed in transfected cells; host or cells: RIE (rat small intestinal cell line); settings: RIE cells transfected with PPARγ and PPRE3-tk-luc, 10 nM
T1 sequence (P37231 1-505): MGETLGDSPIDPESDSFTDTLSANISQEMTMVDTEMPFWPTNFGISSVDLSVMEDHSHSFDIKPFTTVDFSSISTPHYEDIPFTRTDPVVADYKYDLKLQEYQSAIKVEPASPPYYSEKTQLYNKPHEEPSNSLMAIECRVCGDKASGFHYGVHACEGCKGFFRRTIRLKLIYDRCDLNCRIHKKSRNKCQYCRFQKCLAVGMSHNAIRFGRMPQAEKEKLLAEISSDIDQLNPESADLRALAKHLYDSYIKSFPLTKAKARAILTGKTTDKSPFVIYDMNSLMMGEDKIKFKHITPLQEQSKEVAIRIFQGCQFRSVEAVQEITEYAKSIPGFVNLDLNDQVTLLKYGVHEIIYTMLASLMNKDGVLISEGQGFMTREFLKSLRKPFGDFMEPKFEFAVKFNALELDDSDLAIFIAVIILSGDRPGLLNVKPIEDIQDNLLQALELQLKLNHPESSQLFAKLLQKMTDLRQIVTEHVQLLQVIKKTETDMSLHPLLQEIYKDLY
Source text: Increased luciferase activity was only observed in the presence of PPARγ and PPRE3-tk-luc.

DRO cells = assay: DRO cell proliferation (cell counts over six days); format: cell-based, human; settings: DRO cells treated every 48 hours over six days; read-out: IC50, concentration at which 50% of cell proliferation was inhibited
Procedure: . Cells were treated every 48 hours over six days. Cell numbers were counted and data were plotted as mean values ±S.D. The thiazolidinediones inhibited cell proliferation of DRO cells in a dose responsive fashion (FIG. 3B). […]. The EC50 concentrations were in close agreement with the IC50 concentrations for each compound (FIG. 3B).
. […] Cell numbers were counted and data were plotted as mean values ±S.D. (FIG. 9D).
DRO90-1 (DRO) and ARO81 (ARO) cells were derived from primary cultures of human anaplastic thyroid carcinoma tumors that were obtained from Dr. G. J. Juillard (University of California-Los Angeles, Los Angeles, Calif.), and KTC-2 and KTC3 cells were obtained from Dr. Junichi Kurebayashi (Podtcheko et al., J. Clin. Endocrinol. Metab., 88:1889-1896 (2003) and Pushkarev et al., Molecular mechanisms of the Effects of Low Concentrations of Taxol in Anaplastic Thyroid Cancer Cells. Endocrinology: en. 2004-0127 (2004)). Cells were cultured in RPMI 1640 medium (Cellgro, Herndon Va.) supplemented with 10% charcoal-stripped fetal bovine serum (Hyclone), non-essential amino acids, sodium pyruvate, and penicillin-streptomycin-amphotericin B at 37° C. in a humidified atmosphere with 5% CO^2. Charcoal-stripped serum was used to exclude endogenous PPAR ligands contained in serum. For proliferation studies, cells were plated in triplicate in 12-well culture plates at initial concentrations of 2×10^4 cells/well. After overnight incubation, cells were treated with 10 nM RS5444 or DMSO diluent (Sigma) for 6 days with medium, and drug changed every 48 hours. After 6 days, cells were washed with PBS (Cellgro), trypsinized, and counted by Beckman Coulter Counter (Beckman Instruments, Fullerton Calif.). […]. Cells were treated with either DMSO or 10 nM RS5444 (24 hours). After treatment, phase images were obtained on an inverted microscope. For real time PCR studies, cells were plated in 60 mm plates at 50% confluence and treated with 10 nM RS5444 for indicated incubation periods. […].
Cells were either plated in triplicate at 7.5×10^4 cells/mL in 6-well plates or 2×10^4 cells/well in 12-well plates, allowed to adhere overnight, and then transfected for 24 to 72 hours with 2 to 5 μg of either scrambled, p21^WAF1/CIP1 (1022539), RhoB (SI00058933) or PPAR-γ-specific siRNA duplexes (Qiagen Valencia, Calif.) using RNAiFect reagent (Qiagen). The DNA target sequence for PPAR-γ was 5′-[…]-3′. After transfection, cells in the 6-well plates were treated with either DMSO diluent or 10 nM RS5444 for 24 hours and then analyzed by either real time PCR or immunoblotting. Cells in the 12-well plates were exposed for 6 days with medium, and drug changed every 48 hours. After 6 days, cells were washed with PBS (Cellgro), trypsinized, and counted by Beckman Coulter Counter.

activation of PPARγ (luciferase activity) (PPARγ): specifically activates PPARγ
Structure (SMILES): Cc1cc(Oc2ccc3nc(COc4ccc(CC5SC(=O)NC5=O)cc4)n(C)c3c2)cc(C)c1N (centres unmarked) [RS5444]
IC50 (DRO cells): ~0.8 nM
